According to patent US9120770B2, “Substituted pyridine and pyrazine compounds as PDE4 inhibitors” (DART NEUROSCIENCE (CAYMAN) LTD., priority 2013, dated 2015):

Biological target: PDE4D3 (Homo sapiens, UniProt Q08499)
Sequence (Q08499 1-673 isoform Q08499-2): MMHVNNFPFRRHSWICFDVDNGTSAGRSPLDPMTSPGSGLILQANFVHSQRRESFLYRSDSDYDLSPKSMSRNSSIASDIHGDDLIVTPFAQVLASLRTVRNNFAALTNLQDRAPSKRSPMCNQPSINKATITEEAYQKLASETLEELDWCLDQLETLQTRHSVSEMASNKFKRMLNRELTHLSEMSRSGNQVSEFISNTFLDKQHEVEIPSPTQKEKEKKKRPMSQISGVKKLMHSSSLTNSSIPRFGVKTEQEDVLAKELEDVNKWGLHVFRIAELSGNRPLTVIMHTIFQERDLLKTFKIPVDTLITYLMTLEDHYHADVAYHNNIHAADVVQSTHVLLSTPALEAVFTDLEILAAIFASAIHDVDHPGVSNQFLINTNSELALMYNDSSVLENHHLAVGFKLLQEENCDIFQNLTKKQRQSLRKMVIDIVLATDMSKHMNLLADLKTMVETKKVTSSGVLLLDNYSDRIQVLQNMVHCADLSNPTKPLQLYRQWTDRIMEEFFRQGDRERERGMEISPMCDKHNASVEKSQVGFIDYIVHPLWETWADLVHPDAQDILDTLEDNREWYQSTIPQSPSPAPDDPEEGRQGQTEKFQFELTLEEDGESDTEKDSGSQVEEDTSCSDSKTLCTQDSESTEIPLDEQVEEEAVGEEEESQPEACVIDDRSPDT

Q: `CC(C)(O)c1ccc(Cc2cnc(OC(F)F)c(-c3cccc(Cl)c3)c2)cn1` [Example 252, 2-(5-{[5-(3-Chlorophenyl)-6-(difluoromethoxy)pyridin-3-yl]methyl}pyridin-2-yl)propan-2-ol] was tested. Which EC50 did it give?
A: The EC50 was 100 to 1000 nM.

Q: With `COc1ncc(Cc2sc(C)nc2C)cc1-c1cccc(Cl)c1` [Example 66, 3-(3-Chlorophenyl)-5-[(dimethyl-1,3-thiazol-5-yl)methyl]-2-methoxypyridine] as the compound, how does the EC50 read?
A: The EC50 was less than 100 nM.

Q: For `CCOc1ncc(Cn2ccc(C(N)=O)n2)cc1-c1cccc(Cl)c1` [Example 168, 1-{[5-(3-Chlorophenyl)-6-ethoxypyridin-3-yl]methyl}-1H-pyrazole-3-carboxamide], which EC50 is on record?
A: Its EC50 is less than 100 nM.

Q: `CNc1ncc(Cc2cnc(OC)c(-c3cccc(Cl)c3)n2)cn1` [Example 56, 5-{[6-(3-Chlorophenyl)-5-methoxypyrazin-2-yl]methyl}-N-methylpyrimidin-2-amine] was tested. Which EC50 did it give?
A: Its EC50 is less than 100 nM.

Q: Which EC50 does the source give for `CCOc1ncc(Cc2cnc(C#N)nc2)nc1-c1cccc(Cl)c1` [Example 108, 5-{[6-(3-Chlorophenyl)-5-ethoxypyrazin-2-yl]methyl}pyrimidine-2-carbonitrile] here?
A: The EC50 was 100 to 1000 nM.

Q: `COc1ncc(Cc2cn[nH]c2)cc1-c1cccc(Cl)c1` [Example 80, 3-(3-Chlorophenyl)-2-methoxy-5-(1H-pyrazol-4-ylmethyl)pyridine] was tested. Which EC50 did it give?
A: The EC50 was less than 100 nM.

Q: How did the EC50 turn out when `COc1ncc(Cc2cnc(OC)c(-c3cccc(Cl)c3)n2)cn1` [Example 55, 3-(3-Chlorophenyl)-2-methoxy-5-[(2-methoxypyrimidin-5-yl)methyl]pyrazine] was run?
A: Its EC50 is less than 100 nM.

Q: How did the EC50 turn out when `OCc1ncn(Cc2cnc(OC(F)F)c(-c3cccc(Cl)c3)c2)n1` [Example 200, (1-{[5-(3-Chlorophenyl)-6-(difluoromethoxy)pyridin-3-yl]methyl}-1H-1,2,4-triazol-3-yl)methanol] was run?
A: Its EC50 is 100 to 1000 nM.

Q: `CNC(=O)c1ccc(Cc2cnc(OC(F)F)c(-c3cccc(Cl)c3)c2)cn1` [Example 244, 5-{[5-(3-Chlorophenyl)-6-(difluoromethoxy)pyridin-3-yl]methyl}-N-methylpyridine-2-carboxamide] was tested. Which EC50 did it give?
A: Its EC50 is 100 to 1000 nM.

Q: Which EC50 does the source give for `OCc1cncn1Cc1cnc(OC(F)F)c(-c2cccc(Cl)c2)c1` [Example 273, (1-{[5-(3-Chlorophenyl)-6-(difluoromethoxy)pyridin-3-yl]methyl}-1H-imidazol-5-yl)methanol] here?
A: The EC50 was 1000 to 10000 nM.

Q: Which EC50 does the source give for `COc1ncc(Cc2ccc(C(=O)NC3COC3)cc2)cc1-c1cccc(Cl)c1` [Example 243, 4-{[5-(3-Chlorophenyl)-6-methoxypyridin-3-yl]methyl}-N-(oxetan-3-yl)benzamide] here?
A: Its EC50 is 1000 to 10000 nM.

Q: For `NC(=O)C1(c2ccc(Cc3cnc(OC(F)F)c(-c4cccc(Cl)c4)c3)cc2)CC1` [Example 245, 1-(4-{[5-(3-Chlorophenyl)-6-(difluoromethoxy)pyridin-3-yl]methyl}phenyl)cyclopropane-1-carboxamide], which EC50 is on record?
A: The EC50 was 100 to 1000 nM.

Q: `COc1ncc(Cc2cnc(C(N)=O)nc2)cc1-c1ccnc(OC(F)F)c1` [Example 120, 5-({5-[2-(Difluoromethoxy)pyridin-4-yl]-6-methoxypyridin-3-yl}methyl)pyrimidine-2-carboxamide] was tested. Which EC50 did it give?
A: The EC50 was 100 to 1000 nM.

Q: How did the EC50 turn out when `COc1ncc(Cn2cncn2)cc1-c1ccnc(C)c1` [Example 7, 2-Methoxy-3-(2-methylpyridin-4-yl)-5-(1H-1,2,4-triazol-1-ylmethyl)pyridine] was run?
A: Its EC50 is 100 to 1000 nM.

Q: With `COC(=O)c1ncn(Cc2cnc(OC)c(-c3cccc(Cl)c3)n2)n1` [Example 127, Methyl 1-{[6-(3-chlorophenyl)-5-methoxypyrazin-2-yl]methyl}-1H-1,2,4-triazole-3-carboxylate] as the compound, how does the EC50 read?
A: The EC50 was 1000 to 10000 nM.

Q: `COc1cccc(-c2cc(Cn3cnc(N)n3)cnc2OC)c1` [Example 221, 1-{[6-Methoxy-5-(3-methoxyphenyl)pyridin-3-yl]methyl}-1H-1,2,4-triazol-3-amine] was tested. Which EC50 did it give?
A: The EC50 was 100 to 1000 nM.

Q: How did the EC50 turn out when `FC(F)Oc1ncc(Cn2cnc(C3CC3)n2)cc1-c1cccc(Cl)c1` [Example 128, 3-(3-Chlorophenyl)-5-[(3-cyclopropyl-1H-1,2,4-triazol-1-yl)methyl]-2-(difluoromethoxy)pyridine] was run?
A: The EC50 was 100 to 1000 nM.

Q: For `COc1ncc(Cn2cc(CO)nn2)nc1-c1cccc(OC(F)F)c1` [Example 267, [1-({6-[3-(Difluoromethoxy)phenyl]-5-methoxypyrazin-2-yl}methyl)-1H-1,2,3-triazol-4-yl]methanol], which EC50 is on record?
A: Its EC50 is 100 to 1000 nM.

Q: `COc1ncc(Cc2cnoc2)nc1-c1cccc(Cl)c1` [Example 95, 3-(3-Chlorophenyl)-2-methoxy-5-(1,2-oxazol-4-ylmethyl)pyrazine] was tested. Which EC50 did it give?
A: Its EC50 is less than 100 nM.

Q: `COc1ncc(Cn2ncnc2C(F)(F)F)cc1-c1cccc(OC(F)F)c1` [Example 160, 3-[3-(Difluoromethoxy)phenyl]-2-methoxy-5-{[5-(trifluoromethyl)-1H-1,2,4-triazol-1-yl]methyl}pyridine] was tested. Which EC50 did it give?
A: The EC50 was 100 to 1000 nM.

Q: `COc1nc(C)c(Cn2cncn2)cc1-c1cccc(Cl)c1` [Example 112, 3-(3-Chlorophenyl)-2-methoxy-6-methyl-5-(1H-1,2,4-triazol-1-ylmethyl)pyridine] was tested. Which EC50 did it give?
A: The EC50 was 100 to 1000 nM.

Q: How did the EC50 turn out when `CCOc1ncc(Cn2cc(CO)nn2)nc1-c1cccc(OC(F)F)c1` [Example 265, [1-({6-[3-(Difluoromethoxy)phenyl]-5-ethoxypyrazin-2-yl}methyl)-1H-1,2,3-triazol-4-yl]methanol] was run?
A: Its EC50 is 100 to 1000 nM.

Q: `COc1ncc(Cn2cncn2)nc1-c1cccc(Cl)c1` [Example 130, 3-(3-Chlorophenyl)-2-methoxy-5-(1H-1,2,4-triazol-1-ylmethyl)pyrazine] was tested. Which EC50 did it give?
A: The EC50 was 100 to 1000 nM.

Q: For `CCOc1ncc(Cn2ncnc2COC)nc1-c1cccc(OC(F)F)c1` [Example 190, 3-[3-(Difluoromethoxy)phenyl]-2-ethoxy-5-{[5-(methoxymethyl)-1H-1,2,4-triazol-1-yl]methyl}pyrazine], which EC50 is on record?
A: The EC50 was 1000 to 10000 nM.

Q: With `COc1ncc(Cn2cnc(C(F)(F)F)n2)cc1-c1cccc(Cl)c1` [Example 146, 3-(3-Chlorophenyl)-2-methoxy-5-{[3-(trifluoromethyl)-1H-1,2,4-triazol-1-yl]methyl}pyridine] as the compound, how does the EC50 read?
A: The EC50 was 100 to 1000 nM.

Q: How did the EC50 turn out when `CCOc1ncc(Cn2cnc(COC)n2)cc1-c1cccc(OC(F)F)c1` [Example 165, 3-[3-(Difluoromethoxy)phenyl]-2-ethoxy-5-{[3-(methoxymethyl)-1H-1,2,4-triazol-1-yl]methyl}pyridine] was run?
A: The EC50 was less than 100 nM.

Q: `Cc1noc(C)c1Cc1cnc(OC(F)F)c(-c2cccc(Cl)c2)c1` [Example 99, 3-(3-Chlorophenyl)-2-(difluoromethoxy)-5-[(dimethyl-1,2-oxazol-4-yl)methyl]pyridine] was tested. Which EC50 did it give?
A: The EC50 was 1000 to 10000 nM.

Q: Which EC50 does the source give for `COc1ncc(C(O)c2ccc(F)cn2)cc1-c1cccc(Cl)c1` (stereo not shown) [Example 16, [5-(3-Chlorophenyl)-6-methoxypyridin-3-yl](5-fluoropyridin-2-yl)methanol] here?
A: Its EC50 is 1000 to 10000 nM.

Q: Which EC50 does the source give for `COc1ncc(Cn2cncn2)cc1-c1cccc(C)n1` [Example 11, 2-Methoxy-3-(6-methylpyridin-2-yl)-5-(1H-1,2,4-triazol-1-ylmethyl)pyridine] here?
A: The EC50 was greater than 10000 nM.

Q: Which EC50 does the source give for `Nc1ncc(Cc2cnc(OC(F)F)c(-c3cccc(Cl)c3)c2)cn1` [Example 89, 5-{[5-(3-Chlorophenyl)-6-(difluoromethoxy)pyridin-3-yl]methyl}pyrimidin-2-amine] here?
A: Its EC50 is less than 100 nM.

Q: How did the EC50 turn out when `COc1ncc(Cn2cnc(CO)n2)cc1-c1ccnc(OC(F)F)c1` [Example 205, [1-({5-[2-(Difluoromethoxy)pyridin-4-yl]-6-methoxypyridin-3-yl}methyl)-1H-1,2,4-triazol-3-yl]methanol] was run?
A: Its EC50 is less than 100 nM.
